Assay results: the supplement of paper PMC10307832

Key:
Test in all cases: relative viability (nuclei count vs DMSO), 5 days (fraction); higher = more cells survive
[1] = compound: C[As](C)SC[C@H](NC(=O)CC[C@H](N)C(=O)O)C(=O)NCC(=O)O [Darinaparsin] + CC(=O)c1c(C)c2cnc(Nc3ccc(N4CCNCC4)cn3)nc2n(C2CCCC2)c1=O [Palbociclib] (partner 0.5 µM)
Method in brief: (§1)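 Lung cancer cell lines in 1536-well plates were dosed by pin tool the day after seeding, either with one drug alone or with a fixed anchor-drug dose plus five library-drug doses (not always all listed) in √10 steps. After 5 days, cells were fixed and their nuclei stained in one step (final 0.05% Triton X-100, 1% formaldehyde, 1 ug/ml Hoechst), then counted on 4× images. Relative viability is the nuclei count in treated wells divided by that in vehicle wells. Values are medians of duplicate plates.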

[2] = compound: C[As](C)SC[C@H](NC(=O)CC[C@H](N)C(=O)O)C(=O)NCC(=O)O [Darinaparsin] + CS(=O)(=O)N1CCN(Cc2cc3nc(-c4cccc5[nH]ncc45)nc(N4CCOCC4)c3s2)CC1 [Pictilisib] (partner 1 µM)
Method in brief: as §1

[3] = compound: C[As](C)SC[C@H](NC(=O)CC[C@H](N)C(=O)O)C(=O)NCC(=O)O [Darinaparsin] + Nc1ncn([C@H]2C[C@H](O)[C@@H](CO)O2)c(=O)n1 [Decitabine] (partner 2 µM)
Method in brief: as §1

QS11 + Lapatinib = compound: C1CC2=C(C1)C=C(C=C2)OC3=NC(=C4C(=N3)N(C=N4)CC5=CC=C(C=C5)C6=CC=CC=C6)N[C@@H](CC7=CC=CC=C7)CO [QS11] + CS(=O)(=O)CCNCc1ccc(-c2ccc3ncnc(Nc4ccc(OCc5cccc(F)c5)c(Cl)c4)c3c2)o1 [Lapatinib] (partner 2 µM)
Method in brief: as §1

Cell Line	relative viability ([1]; first compound 0.08 µM)	relative viability ([1]; first compound 0.8 µM)	relative viability ([1]; first compound 2.53 µM)	relative viability ([1]; first compound 8 µM)	relative viability ([2]; first compound 0.08 µM)	relative viability ([2]; first compound 0.8 µM)	relative viability ([2]; first compound 2.53 µM)	relative viability ([2]; first compound 8 µM)	relative viability ([3]; first compound 0.08 µM)	relative viability ([3]; first compound 0.8 µM)	relative viability ([3]; first compound 2.53 µM)	relative viability ([3]; first compound 8 µM)	relative viability (QS11 + Lapatinib; first compound 0.08 µM)	relative viability (QS11 + Lapatinib; first compound 0.253 µM)	relative viability (QS11 + Lapatinib; first compound 0.8 µM)	relative viability (QS11 + Lapatinib; first compound 2.53 µM)	relative viability (QS11 + Lapatinib; first compound 8 µM)
NCI-H1975	0.693	0.634	0.504	0.606	0.289	0.299	0.289	0.28	0.382	0.429	0.425	0.374	0.912	0.805	0.965	1.03	1.18
BEN	0.492	0.445	0.488	0.43	0.709	0.636	0.498	0.659	0.724	0.72	0.812	0.811	0.555	0.89	0.864	0.781	1.19
NCI-H1437	0.321	0.307	0.328	0.338	0.468	0.409	0.395	0.391	0.653	0.565	0.583	0.599	0.832	0.846	0.581	0.704	0.598
NCI-H1734	0.35	0.332	0.361	0.395	0.534	0.473	0.421	0.559	0.558	0.483	0.504	0.529	1.07	0.968	0.921	1.01	0.898
NCI-H596					0.396	0.397	0.416	0.378	1.02	1.11	1	1.15	1	1.02	1.02	1.03	1.05
LOU-NH91	0.576	0.512	0.562	0.641	0.535	0.492	0.553	0.56	0.876	0.771	0.782	0.799	0.742	0.622		0.731	0.685
NCI-H2342	0.539	0.527	0.493	0.538					0.712	0.688	0.76	0.702					
NCI-H522	1.11	1.01	0.957	1.03					0.626	0.627	0.711	0.705					
SK-MES-1	0.308	0.303	0.298	0.314	0.354	0.353	0.336	0.401	0.358	0.357	0.34	0.388	0.475	0.432	0.498	0.457	0.45
UMC-11	0.309	0.342	0.295	0.345	0.897	0.821	0.75	0.915	0.563	0.574	0.636	0.677	0.873	0.984	0.874	1.16	1.33
LK-2	1		0.815	0.989	0.634		0.547	0.564	0.281	0.235	0.277	0.333	1.04	1.15	1	0.829	1.3
CAL-12T	0.446	0.387	0.408	0.478	0.392	0.335	0.473	0.478					0.631	0.601	0.595	0.652	0.68
PC-3 [JPC-3]	0.553	0.516	0.542	0.547	0.747	0.674	0.63	0.877	0.748	0.773	0.847	0.796	0.464	0.409	0.436	0.5	0.435
NCI-H1651	0.515	0.531	0.527	0.522	0.721	0.554	0.471	0.865	0.589	0.66	0.596	0.665	0.941	0.872	0.828	1.01	0.76
NCI-H650	0.325	0.331	0.339	0.322	0.856	0.834	0.922	1.13	0.296	0.35	0.333	0.338	0.83	0.907	1.13	0.801	0.667
HOP-62	0.541	0.411	0.385	0.593	0.99	0.588	0.774	1.04	0.233	0.27	0.235	0.23	0.95	1.18	0.863	0.892	0.983
LC-2-ad	0.554	0.523	0.383	0.602	0.564	0.456	0.32	0.533	0.905	0.838	0.786	0.899	0.91	1.09	0.627	1.04	0.921
EPLC-272H	0.318	0.315	0.333	0.292	0.295	0.332	0.266	0.311	0.377	0.37	0.353	0.329	1.01	0.855	0.953	0.98	0.871
SW 900	0.55		0.59	0.655					0.44		0.404	0.462					
EBC-1					0.393	0.359	0.433	0.288					0.233	0.198	0.194	0.211	0.207
HCC-44	1.04	0.916	1.02	1	0.852	0.574	0.44	0.677	1.05	0.966	0.924	0.977	1.07	0.936	0.668	0.955	0.888
NCI-H441	0.264	0.214	0.21	0.188	0.566	0.498	0.424	0.548	0.255	0.21	0.245	0.19					
